Test results published in patent US7956053B2, “Inhibitors of tyrosine kinases” (Novartis AG, priority 2002, dated 2011).

Key:
c-Abl = molecular target: T1, c-Abl (Homo sapiens, UniProt P00519); test: Test for activity against c-Abl protein tyrosine kinase (filter binding assay); type: biochemical
T1 construct: The His-tagged kinase domain of c-Abl is cloned and expressed in the baculovirus/Sf9 system; His; made in house; host or cells: baculovirus/Sf9
T1 sequence (P00519 242-493 limits assumed): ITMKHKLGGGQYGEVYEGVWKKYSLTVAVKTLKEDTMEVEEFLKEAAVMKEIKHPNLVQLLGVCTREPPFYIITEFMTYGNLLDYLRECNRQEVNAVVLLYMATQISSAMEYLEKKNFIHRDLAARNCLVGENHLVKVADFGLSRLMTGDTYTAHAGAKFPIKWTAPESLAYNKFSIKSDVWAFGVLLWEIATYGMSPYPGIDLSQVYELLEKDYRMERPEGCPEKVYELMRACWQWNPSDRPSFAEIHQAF
Method: Test for activity against c-Abl protein tyrosine kinase. The test is conducted as a filter binding assay as follows: The His-tagged kinase domain of c-Abl is cloned and expressed in the baculovirus/Sf9 system as described by Bhat et al., J Biol. Chem. 272, 16170-5 (1997). A protein of 37 kD (c-Abl kinase) is purified by a two-step procedure over a Cobalt metal chelate column followed by an anion exchange column with a yield of 1-2 mg/L of Sf9 cells. The purity of the c-Abl kinase is >90% as judged by SDS-PAGE after Coomassie blue staining. The assay contains: c-Abl kinase (50 ng), 20 mM Tris.HCl, pH 7.5, 10 mM MgCl2, 10 μM Na3VO4, 1 mM DTT and 0.06 μCi/assay [γ^33 P]-ATP (5 μM ATP) using 30 μg/mL poly-Ala,Glu,Lys,Tyr-6:2:5:1 (Poly-AEKY, Sigma P1152) in the presence of 1% DMSO, total volume of 30 μL. Reactions are terminated by adding 10 μL of 250 mM EDTA, and 30 μL of the reaction mixture is transferred onto Immobilon-PVDF membrane (Millipore, Bedford, Mass., USA) previously soaked for 5 min with methanol, rinsed with water, then soaked for 5 min with 0.5% H3PO4 and mounted on vacuum manifold with disconnected vacuum source. After spotting all samples, vacuum is connected and each well rinsed with 200 μL 0.5% H3PO4. Membranes are removed and washed on a shaker with 0.5% H3PO4 (4 times) and once with ethanol. Membranes are counted after drying at ambient temperature, mounting in Packard TopCount 96-well frame, and addition of 10 μL/well of Microscint™ (Packard).
(§1) Enzymatic (c-Abl, KDR, Flt3) in vitro inhibition data are presented as % inhibition at 10 μM. The measurements are made as described above in the general description.

KDR = KDR (Homo sapiens, UniProt P35968); test: Enzymatic KDR in vitro inhibition; type: biochemical
KDR, sequence (P35968 20-1356): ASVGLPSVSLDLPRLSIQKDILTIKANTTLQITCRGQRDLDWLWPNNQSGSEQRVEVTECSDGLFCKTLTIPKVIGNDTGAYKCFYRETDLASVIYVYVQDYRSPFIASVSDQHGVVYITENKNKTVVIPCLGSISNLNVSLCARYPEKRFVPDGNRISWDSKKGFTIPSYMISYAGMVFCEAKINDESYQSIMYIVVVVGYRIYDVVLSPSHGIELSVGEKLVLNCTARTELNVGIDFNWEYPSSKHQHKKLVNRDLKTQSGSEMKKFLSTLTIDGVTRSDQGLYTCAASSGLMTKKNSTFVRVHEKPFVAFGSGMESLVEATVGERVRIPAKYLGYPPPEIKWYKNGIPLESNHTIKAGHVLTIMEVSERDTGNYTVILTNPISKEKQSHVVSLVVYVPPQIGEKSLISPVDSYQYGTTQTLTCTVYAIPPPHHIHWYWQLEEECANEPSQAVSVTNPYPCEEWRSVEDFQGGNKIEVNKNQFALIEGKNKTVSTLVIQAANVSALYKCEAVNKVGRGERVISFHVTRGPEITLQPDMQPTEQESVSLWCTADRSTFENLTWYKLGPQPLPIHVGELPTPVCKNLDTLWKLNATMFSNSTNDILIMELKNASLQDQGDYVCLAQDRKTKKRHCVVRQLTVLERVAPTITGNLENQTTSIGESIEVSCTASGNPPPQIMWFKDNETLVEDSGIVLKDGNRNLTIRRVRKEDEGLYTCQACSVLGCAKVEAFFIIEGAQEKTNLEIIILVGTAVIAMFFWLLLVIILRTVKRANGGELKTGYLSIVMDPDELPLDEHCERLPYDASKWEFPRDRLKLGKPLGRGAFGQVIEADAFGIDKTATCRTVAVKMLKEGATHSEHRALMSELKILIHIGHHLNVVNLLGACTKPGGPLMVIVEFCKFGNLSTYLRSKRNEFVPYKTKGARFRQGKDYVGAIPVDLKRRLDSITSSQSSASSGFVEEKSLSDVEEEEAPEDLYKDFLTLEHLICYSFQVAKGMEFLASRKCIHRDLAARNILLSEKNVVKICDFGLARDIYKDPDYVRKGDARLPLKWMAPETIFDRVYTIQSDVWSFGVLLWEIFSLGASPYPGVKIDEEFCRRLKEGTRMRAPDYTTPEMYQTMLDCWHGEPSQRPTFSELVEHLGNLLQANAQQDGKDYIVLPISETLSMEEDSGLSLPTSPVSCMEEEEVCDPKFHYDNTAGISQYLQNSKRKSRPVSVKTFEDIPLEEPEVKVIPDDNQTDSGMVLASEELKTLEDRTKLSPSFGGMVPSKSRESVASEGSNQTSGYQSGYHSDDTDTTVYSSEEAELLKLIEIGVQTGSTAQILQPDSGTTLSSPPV
Method: Test for activity against VEGF-receptor tyrosine kinase. The test is conducted using Flt-1 VEGF-receptor tyrosine kinase. The detailed procedure is as follows: 30 μL kinase solution (10 ng of the kinase domain of Flt-1, Shibuya et al., Oncogene 5, 519-24 [1990]) in 20 mM Tris.HCl pH 7.5, 3 mM manganese dichloride (MnCl2), 3 mM magnesium chloride (MgCl2), 10 μM sodium vanadate, 0.25 mg/mL polyethylenglycol (PEG) 20000, 1 mM dithiothreitol and 3 μg/μL poly(Glu,Tyr) 4:1 (Sigma, Buchs, Switzerland), 8 μM [^33P]-ATP (0.2 μCi), 1% DMSO, and 0 to 100 μM of the compound to be tested are incubated together for 10 minutes at room temperature. The reaction is then terminated by the addition of 10 μL 0.25 M ethylenediaminetetraacetate (EDTA) pH 7. Using a multichannel dispenser (LAB SYSTEMS, USA), an aliquot of 20 μL is applied to a PVDF (=polyvinyl difluoride) Immobilon P membrane (Millipore, Bedford, USA), through a Gibco-BRL microtiter filter manifold and connected to a vacuum. Following complete elimination of the liquid, the membrane is washed 4 times successively in a bath containing 0.5% phosphoric acid (H3PO4) and once with ethanol, incubated for 10 minutes each time while shaking, then mounted in a Hewlett Packard TopCount Manifold and the radioactivity measured after the addition of 10 μL Microscint® (β-scintillation counter liquid). IC50-values are determined by linear regression analysis of the percentages for the inhibition of each compound in at least four concentrations (as a rule 0.01, 0.1, 1.0 and 10 μmol).
as §1

Row | Structure (SMILES) | inhibition at 10 µM (c-Abl) | inhibition at 10 µM (KDR)
1 | Cc1ccc(C(=O)N2CCC(N3CCCCC3)CC2)cc1Nc1nccc(-c2cccnc2)n1 [Example 46, 1′-[4-Methyl-3-[[4-(3-pyridinyl)-2-pyrimidinyl]amino]benzoyl]-1,4′-bipiperidine] | 1% | 43%
2 | Cc1ccc(C(=O)NCCN(C(C)C)C(C)C)cc1Nc1nccc(-c2cccnc2)n1 [Example 66, N-[2-[bis(1-Methylethyl)amino]ethyl]-4-methyl-3-[[4-(3-pyridinyl)-2-pyrimidinyl]-amino]benzamide] | 67% | 23%
3 | Cc1ccc(C(=O)NCc2ccco2)cc1Nc1nccc(-c2cccnc2)n1 [Example 1, N-(2-Furanylmethyl)-4-methyl-3-[[4-(3-pyridinyl)-2-Pyrimidinyl]amino]benzamide] | 51% | 57%
4 | COc1ccc(CCNC(=O)c2ccc(C)c(Nc3nccc(-c4cccnc4)n3)c2)cc1OC [Example 15, N-[2-(3,4-Dimethoxyphenyl)ethyl]-4-methyl-3-[[4-(3-pyridinyl)-2-pyrimidinyl]amino]benzamide] | 60% | 23%
5 | COc1ccc(CNC(=O)c2ccc(C)c(Nc3nccc(-c4cccnc4)n3)c2)cc1 [Example 8, N-[(4-Methoxyphenyl)methyl]-4-methyl-3-[[4-(3-pyridinyl)-2-pyrimidinyl]amino]benzamide] | 70% | 81%
6 | Cc1ccc(C(=O)N2CCN(Cc3ccccc3)CC2)cc1Nc1nccc(-c2cccnc2)n1 [Example 39, 1-[4-Methyl-3-[[4-(3-pyridinyl)-2-pyrimidinyl]amino]benzoyl]-4-(phenylmethyl)-piperazine] | 64% | 74%
7 | Cc1ccc(C(=O)N2CCOCC2)cc1Nc1nccc(-c2cccnc2)n1 [Example 35, 4-[4-Methyl-3-[[4-(3-pyridinyl)-2-pyrimidinyl]amino]benzoyl]-morpholine] | 27% | 47%
8 | COCCN(CCOC)C(=O)c1ccc(C)c(Nc2nccc(-c3cccnc3)n2)c1 [Example 45, N,N-bis(2-Methoxyethyl)-4-methyl-3-[[4-(3-pyridinyl)-2-pyrimidinyl]amino]benzamide] | 34% | 61%
9 | Cc1ccc(C(=O)NCCc2cccn2C)cc1Nc1nccc(-c2cccnc2)n1 [Example 7, 4-Methyl-N-[2-(1-methyl-1H-pyrrol-2-yl)ethyl]-3-[[4-(3-pyridinyl)-2-pyrimidinyl]amino]benzamide] | 72% | 45%
10 | Cc1ccc(C(=O)NCCCO)cc1Nc1nccc(-c2cccnc2)n1 [Example 30, N-(3-Hydroxypropyl)-4-methyl-3-[[4-(3-pyridinyl)-2-pyrimidinyl]amino]benzamide] | 57% | 37%
11 | Cc1ccc(C(=O)NCC(N)=O)cc1Nc1nccc(-c2cccnc2)n1 [Example 26, N-(2-Amino-2-oxoethyl)-4-methyl-3-[[4-(3-pyridinyl)-2-pyrimidinyl]amino]benzamide] | 55% | 56%
12 | Cc1ccc(C(=O)NCC(c2ccccc2)c2ccccc2)cc1Nc1nccc(-c2cccnc2)n1 [Example 49, N-(2,2-Diphenylethyl)-4-methyl-3-[[4-(3-pyridinyl)-2-pyrimidinyl]amino]-benzamide] | 72% | 37%
13 | COC(=O)CCNC(=O)c1ccc(C)c(Nc2nccc(-c3cccnc3)n2)c1 [Example 28, N-[4-Methyl-3-[[4-(3-pyridinyl)-2-pyrimidinyl]amino]benzoyl]beta-alanine methyl ester] | 73% | 61%
14 | Cc1ccc(C(=O)N[C@@H](Cc2ccccc2)C(=O)OC(C)(C)C)cc1Nc1nccc(-c2cccnc2)n1 [Example 32, N-[4-Methyl-3-[[4-(3-pyridinyl)-2-pyrimidinyl]amino]benzoyl]-(L)-phenylalanine 1,1-dimethylethyl ester] | 90% | 37%
15 | Cc1ccc(C(=O)NCCCN(C)c2ccccc2)cc1Nc1nccc(-c2cccnc2)n1 [Example 63, 4-Methyl-N-[3-(methylphenylamino)propyl]-3-[[4-(3-pyridinyl)-2-pyrimidinyl]-amino]benzamide] | 74% | 82%
16 | CC(=O)Nc1ccc(NC(=O)c2ccc(C)c(Nc3nccc(-c4cccnc4)n3)c2)cc1 [Example 22, N-[4-(Acetylamino)phenyl]-4-methyl-3-[[4-(3-pyridinyl)-2-pyrimidinyl]amino]benzamide] | 59% | 7%
17 | Cc1ccc(C(=O)N(C)Cc2ccccc2)cc1Nc1nccc(-c2cccnc2)n1 [Example 21, N,4-Dimethyl-N-(phenylmethyl)-3-[[4-(3-pyridinyl)-2-pyrimidinyl]amino]-benzamide] | 30% | 93%
18 | Cc1ccc(C(=O)NCc2ccc(C(F)(F)F)cc2)cc1Nc1nccc(-c2cccnc2)n1 [Example 54, 4-Methyl-3-[[4-(3-pyridinyl)-2-pyrimidinyl]amino]-N-[[4-(trifluoromethyl)phenyl]methyl]benzamide] | 69% | 74%
19 | Cc1ccc(C(=O)N2CCC(O)(c3ccccc3)CC2)cc1Nc1nccc(-c2cccnc2)n1 [Example 59, 1-[4-Methyl-3-[[4-(3-pyridinyl)-2-pyrimidinyl]amino]benzoyl]-4-phenyl-4-piperidinol] | 75% | 83%
20 | Cc1ccc(C(=O)N2CCN(c3cnccn3)CC2)cc1Nc1nccc(-c2cccnc2)n1 [Example 38, 1-[4-Methyl-3-[[4-(3-pyridinyl)-2-pyrimidinyl]amino]benzoyl]-4-(pyrazinyl)-piperazine] | 74% | 91%
21 | CCOC(=O)Cc1csc(NC(=O)c2ccc(C)c(Nc3nccc(-c4cccnc4)n3)c2)n1 [Example 16, 2-[[4-Methyl-3-[[4-(3-pyridinyl)-2-pyrimidinyl]amino]benzoyl]amino]-4-thiazoleacetic acid ethyl ester] | 42% | 10%
22 | Cc1ccc(C(=O)N[C@H](C)C(=O)OC(C)(C)C)cc1Nc1nccc(-c2cccnc2)n1 [Example 33, N-[4-Methyl-3-[[4-(3-pyridinyl)-2-pyrimidinyl]amino]benzoyl]-(D)-alanine 1,1-dimethylethyl ester] | 97% | 51%
23 | Cc1ccc(C(=O)NCCCn2ccnc2)cc1Nc1nccc(-c2cccnc2)n1 [Example 17, N-[3-(1H-Imidazol-1-yl)propyl]-4-methyl-3-[[4-(3-pyridinyl)-2pyrimidinyl]amino]benzamide] | 54% | 62%
24 | Cc1ccc(C(=O)N2CCC(NC(=O)c3ccccc3)CC2)cc1Nc1nccc(-c2cccnc2)n1 [Example 34, N-[1-[4-Methyl-3-[[4-(3-pyridinyl)-2-pyrimidinyl]amino]benzoyl]-4-piperidinyl]benzamide] | 73% | 89%
